Data set [1] has as its system MCF7. Description: Cytostatic activity against human MCF7 cells after 4 days by MTT assay. The class given is functional, cell-based. The following applies: MCF7, 96 h. On the technique in general: Formazan colour is commonly taken as a measure of viable cells.
The test system of data set [2] is MONO-MAC-6. Description: Antiproliferative activity against human MONO-MAC-6 cells assessed as inhibition of cell viability at 10^-8 M after 48 hrs by cell counting method. The class given is functional. The following applies: MONO-MAC-6, 48 h, values are per cent of control.
Data set [3] has as its system MONO-MAC-6. Description: Antiproliferative activity against human MONO-MAC-6 cells assessed as inhibition of cell viability at 10^-9 M after 48 hrs by cell counting method. Conditions: MONO-MAC-6, 48 h, values are per cent of control. The class given is functional.
Data set [4] has as its system MONO-MAC-6. The experiment in a line: Antiproliferative activity against human MONO-MAC-6 cells assessed as inhibition of cell viability at 10^-8 M after 24 hrs by cell counting method. Conditions: MONO-MAC-6, 24 h, values are per cent of control. The class given is functional.
Data set [5] deals with MONO-MAC-6. Description: Induction of adhesion in human MONO-MAC-6 cells after 24 hrs by electrical impedence method. The data set is classed as functional, cell-based.
In data set [6] the test system is HT-29. Description: Cytostatic activity against human HT-29 cells after 4 days by MTT assay. The data set is classed as functional, cell-based. The following applies: HT-29, 96 h.
Data set [7] concerns MONO-MAC-6. The experiment in a line: Antiproliferative activity against human MONO-MAC-6 cells assessed as inhibition of cell viability at 10^-8 M after 72 hrs by cell counting method. The data set is classed as functional. Conditions: MONO-MAC-6, 72 h, values are per cent of control.
The test system of data set [8] is MONO-MAC-6. The experiment in a line: Antiproliferative activity against human MONO-MAC-6 cells assessed as inhibition of cell viability at 10^-6 M after 24 hrs by cell counting method. The class given is functional. Conditions: MONO-MAC-6, 24 h, values are per cent of control.
The test system of data set [9] is MONO-MAC-6. Description: Induction of adhesion in human MONO-MAC-6 cells at 10^-9 M after 24 hrs by electrical impedence method relative to control. The data set is classed as functional.
In data set [10] the test system is MONO-MAC-6. The experiment in a line: Antiproliferative activity against human MONO-MAC-6 cells assessed as cell viability at 10^-6 M after 72 hrs by cell counting method relative to untreated control. The data set is classed as functional.
For data set [11], the system named is MONO-MAC-6. The experiment in a line: Antiproliferative activity against human MONO-MAC-6 cells assessed as cell viability at 10^-6 M after 24 hrs by cell counting method relative to untreated control. The data set is classed as functional.
The test system of data set [12] is MONO-MAC-6. Description: Antiproliferative activity against human MONO-MAC-6 cells assessed as inhibition of cell viability at 10^-9 M after 24 hrs by cell counting method. Conditions: MONO-MAC-6, 24 h, values are per cent of control. The data set is classed as functional.
The test system of data set [13] is MONO-MAC-6. Description: Antiproliferative activity against human MONO-MAC-6 cells assessed as cell viability at 10^-6 M after 48 hrs by cell counting method relative to untreated control. The data set is classed as functional.
The nature of data set [14]: Drug metabolism in rat lysosomal homogenate assessed as H-Lys(Dau=Aoa)-OH formation at 0.1 ug/ul after 24 hrs by LC-MS analysis. The data set is classed as ADME, tissue-based, Lysosome. The following applies: tissue homogenate.
Data set [15] has as its system Serum. The experiment in a line: Metabolic stability in human serum at 10 uM after 24 hrs by LC-MS analysis. The data set is classed as ADME, cell-free.
For data set [16], the system named is MONO-MAC-6. The experiment in a line: Antiproliferative activity against human MONO-MAC-6 cells assessed as inhibition of cell viability at 10^-7 M after 72 hrs by cell counting method. The class given is functional. The following applies: MONO-MAC-6, 72 h, values are per cent of control.
In data set [17] the test system is LNCaP. The experiment in a line: Cytostatic activity against human LNCAP cells after 4 days by MTT assay. The data set is classed as functional, cell-based. The following applies: 96 h.
Data set [18] has as its system MONO-MAC-6. The experiment in a line: Antiproliferative activity against human MONO-MAC-6 cells assessed as inhibition of cell viability at 10^-6 M after 72 hrs by cell counting method. The data set is classed as functional. Conditions: MONO-MAC-6, 72 h, values are per cent of control.
The test system of data set [19] is MONO-MAC-6. The experiment in a line: Antiproliferative activity against human MONO-MAC-6 cells assessed as inhibition of cell viability at 10^-7 M after 24 hrs by cell counting method. The data set is classed as functional. Conditions: MONO-MAC-6, 24 h, values are per cent of control.
The test system of data set [20] is MONO-MAC-6. The experiment in a line: Antiproliferative activity against human MONO-MAC-6 cells assessed as inhibition of cell viability at 10^-6 M after 48 hrs by cell counting method. The class given is functional. The following applies: MONO-MAC-6, 48 h, values are per cent of control.
For data set [21], the system named is MONO-MAC-6. The experiment in a line: Antiproliferative activity against human MONO-MAC-6 cells assessed as inhibition of cell viability at 10^-7 M after 48 hrs by cell counting method. The data set is classed as functional. Conditions: MONO-MAC-6, 48 h, values are per cent of control.
For data set [22], the system named is MONO-MAC-6. Description: Antiproliferative activity against human MONO-MAC-6 cells assessed as inhibition of cell viability at 10^-9 M after 72 hrs by cell counting method. The class given is functional. Conditions: MONO-MAC-6, 72 h, values are per cent of control.
In data set [23] the test system is MONO-MAC-6. The experiment in a line: Induction of adhesion in human MONO-MAC-6 cells at 10^-7 M after 1.5 hrs by electrical impedence method relative to control. The data set is classed as functional.
Data set [24] deals with MONO-MAC-6. The experiment in a line: Induction of adhesion in human MONO-MAC-6 cells at 10^-8 to 10^-6 M after 24 hrs by electrical impedence method relative to control. The class given is functional.
The subject of data set [25] is MONO-MAC-6. Description: Antiproliferative activity against human MONO-MAC-6 cells assessed as cell viability at 10^-7 M after 24 hrs by cell counting method relative to untreated control. The class given is functional.
For data set [26], the system named is MONO-MAC-6. Description: Antiproliferative activity against human MONO-MAC-6 cells assessed as cell viability at 10^-9 to 10^-6 M after 72 hrs by cell counting method relative to untreated control. The class given is functional.
Data set [27] in a line: Antitumor activity against mouse C26 cells allografted in Balb/C mouse assessed as tumor growth inhibition. The class given is functional.
Data set [28] relates to MONO-MAC-6. The experiment in a line: Antiproliferative activity against human MONO-MAC-6 cells assessed as cell viability at 10^-9 to 10^-6 M after 48 hrs by cell counting method relative to untreated control. The class given is functional.
The subject of data set [29] is MONO-MAC-6. The experiment in a line: Induction of adhesion in human MONO-MAC-6 cells at 10^-7 to 10^-6 M after 24 hrs by electrical impedence method relative to control. The class given is functional, cell-based.
A short description of data set [30]: Drug metabolism in rat lysosomal homogenate assessed as H-Lys(MTX)HDWK(Dau=Aoa)P-OH formation at 0.1 ug/ul after 24 hrs by LC-MS analysis. The data set is classed as ADME, tissue-based, Lysosome. The following applies: tissue homogenate.

This note sets out measurements from ChEMBL document CHEMBL2021806, “GnRH-III based multifunctional drug delivery systems containing daunorubicin and methotrexate” (Eur J Med Chem, 2012).

pIC50: −log10 of the molar value. Calls of active or inactive are those of the source. The calls are words filed in the database; no cut-off is given here.

Turning to `COc1cccc2c1C(=O)c1c(O)c3c(c(O)c1C2=O)C[C@@](O)(/C(C)=N/OCC(=O)NCCCC[C@H](NC(=O)[C@H](Cc1c[nH]c2ccccc12)NC(=O)[C@H](CC(=O)O)NC(=O)[C@H](Cc1cnc[nH]1)NC(=O)[C@H](CCCCNC(=O)[C@H](CCC(=O)O)NC(=O)c1ccc(N(C)Cc2cnc4nc(N)nc(N)c4n2)cc1)NC(=O)[C@H](Cc1c[nH]c2ccccc12)NC(=O)[C@H](Cc1cnc[nH]1)NC(=O)[C@@H]1CCC(=O)N1)C(=O)N1CCC[C@H]1C(=O)NCC(N)=O)C[C@@H]3O[C@H]1C[C@H](N)[C@H](O)[C@H](C)O1`, the results for the pIC50 in [1], in data set [6] and in [17] were 5.24, 5.44 and 4.54, respectively. Besides, the results for the viability, % of control at 0.01 µM in data set [2], in [4] and in data set [7] were 92%, 103% and 103%, respectively. In addition, the viability, % of control at 0.001 µM came out at 89% in data set [3], 108% in [12] and 81% in [22]. The Activity result in data set [5] is “Dose-dependent effect”; in data set [9] it was 135%. Besides, the viability, % of control at 1 µM in data set [8] is 88%; in data set [18], 76%; in data set [20] it was 86%. Further, the Ratio was 0.95 in data set [10], 1.06 in data set [11] and 0.98 in [13]. In addition, the Drug metabolism result in [14] is “Active”. Also, in data set [15], the Stability result is “Stable”. Further, the viability, % of control at 0.1 µM amounted to 104% in [16], 98% in data set [19] and 94% in data set [21].
As for `COc1cccc2c1C(=O)c1c(O)c3c(c(O)c1C2=O)C[C@@](O)(C(C)=O)C[C@@H]3O[C@H]1C[C@H](N)[C@H](O)[C@H](C)O1` [DAUNORUBICIN], the Activity in [23] was determined as 142%; in data set [24], 121%. For the same molecule, the pIC50 in data set [1] is 6.40; in data set [6], 6.70; in data set [17], 7.00. Besides, the viability, % of control at 0.01 µM in data set [2] stood at 35%; in data set [4] it was 95%; in data set [7], 17%. In addition, the viability, % of control at 0.001 µM in data set [3] was determined as 36%; in data set [12], 97%; in data set [22], 21%. Besides, the viability, % of control at 1 µM in data set [8] worked out at 46%; in data set [18] it was 16%; in data set [20] it was 27%. Further, the Ratio is listed as 0.85 in [25], 0.49 in data set [26] and 0.45 in data set [28]. The viability, % of control at 0.1 µM in data set [16] was determined as 14%; in data set [19], 59%; in [21] it was 26%. For the same molecule, in [27], the “growth inhibition (GI)” value is given as 24.4%.
`COc1cccc2c1C(=O)c1c(O)c3c(c(O)c1C2=O)C[C@@](O)(/C(C)=N/OCC(=O)NCCCC[C@H](NC(=O)[C@H](CCC(=O)O)NC(=O)c1ccc(N(C)Cc2cnc4nc(N)nc(N)c4n2)cc1)C(=O)NCCCC[C@H](NC(=O)[C@H](Cc1c[nH]c2ccccc12)NC(=O)[C@H](CC(=O)O)NC(=O)[C@H](Cc1cnc[nH]1)NC(=O)[C@H](CO)NC(=O)[C@H](Cc1c[nH]c2ccccc12)NC(=O)[C@H](Cc1cnc[nH]1)NC(=O)[C@@H]1CCC(=O)N1)C(=O)N1CCC[C@H]1C(=O)NCC(N)=O)C[C@@H]3O[C@H]1C[C@H](N)[C@H](O)[C@H](C)O1`: the outcome in [29] was inactive. Further, the figures for the pIC50 in [1], in data set [6] and in data set [17] were 5.27, 5.25 and 4.95, respectively. In addition, the Drug metabolism entry in data set [30] is on record as “Active”. The viability, % of control at 0.01 µM turned out to be 91% in [2], 128% in [4] and 97% in [7]. In addition, the viability, % of control at 0.001 µM is 93% in data set [3], 116% in [12] and 99% in data set [22]. Further, the viability, % of control at 1 µM in data set [8] is 82%; in data set [18], 38%; in data set [20], 63%. Further, the Activity in data set [9] was 77.6%. Moreover, the Ratio was 0.77 in data set [10], 1 in data set [11] and 0.9 in data set [13]. Besides, in data set [15], the Stability result is recorded as “Stable”. In addition, the figures for the viability, % of control at 0.1 µM in [16], in data set [19] and in data set [21] were 94%, 105% and 97%, respectively.

One may read the pIC50 as the IC50 on a negative log10 scale, so that one unit is a factor of ten.
